Test results taken from PubChem BioAssay AID248 (DTP/NCI, 2004).
“And” between values parts separate entries of the source, which are not always exact repeats. Identical values can stand only once. Inconclusive results and toxic doses are left out. No stated cut-off is given here; in the data, active means T/C of 150% or more; inactive means T/C below 125%. Square brackets hold non-standard residues; d marks the D form. Peptide text beside a SMILES is read from it. * marks the point of attachment. ξ: configuration not given here. Boc = CC(C)(C)OC(=O)*; ξP = O=C(O)C1CCCN1

System: L1210 leukemia ip in BDF1 mice, survival T/C
Test: NCI In Vivo Anticancer Drug Screen. Data for tumor model L1210 Leukemia (intraperitoneal) in B6D2F1 (BDF1) mice
Conditions: endpoint: mean survival time, higher = longer survival
How it was run: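 Tumor was transplanted into mice, which were then dosed with test compound or vehicle alone. Survival was recorded for each group, and the treated figure was expressed relative to the control figure.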

[1] = dose: 75.0 mg/kg/injection, schedule: Q01DX001 (ip), vehicle: saline
[2] = dose: 150.0 mg/kg/injection, schedule: Q01DX001 (ip), vehicle: saline
[3] = dose: 100.0 mg/kg/injection, schedule: Q04DX002 (ip), vehicle: saline
[4] = dose: 200.0 mg/kg/injection, schedule: Q04DX002 (ip), vehicle: saline
[5] = dose: 400.0 mg/kg/injection, schedule: Q04DX002 (ip), vehicle: saline
[6] = dose: 100.0 mg/kg/injection, schedule: Q04DX002 (ip), vehicle: Klucel (hydroxypropylcellulose) (HPC)
[7] = dose: 200.0 mg/kg/injection, schedule: Q04DX002 (ip), vehicle: Klucel (hydroxypropylcellulose) (HPC)
[8] = dose: 400.0 mg/kg/injection, schedule: Q04DX002 (ip), vehicle: Klucel (hydroxypropylcellulose) (HPC)
[9] = dose: 100.0 mg/kg/injection, schedule: Q01DX001 (ip), vehicle: saline
[10] = dose: 200.0 mg/kg/injection, schedule: Q01DX001 (ip), vehicle: saline
[11] = dose: 400.0 mg/kg/injection, schedule: Q01DX001 (ip), vehicle: saline
[12] = dose: 50.0 mg/kg/injection, schedule: Q01DX001 (ip), vehicle: carboxymethylcellulose (CMC)
[13] = dose: 100.0 mg/kg/injection, schedule: Q01DX001 (ip), vehicle: carboxymethylcellulose (CMC)
[14] = dose: 200.0 mg/kg/injection, schedule: Q01DX001 (ip), vehicle: carboxymethylcellulose (CMC)
[15] = dose: 400.0 mg/kg/injection, schedule: Q01DX001 (ip), vehicle: carboxymethylcellulose (CMC)
[16] = dose: 100.0 mg/kg/injection, schedule: Q04DX003 (ip), vehicle: saline with Tween-80
[17] = dose: 200.0 mg/kg/injection, schedule: Q04DX003 (ip), vehicle: saline with Tween-80
[18] = dose: 100.0 mg/kg/injection, schedule: Q04DX003 (ip), vehicle: Klucel (hydroxypropylcellulose) (HPC)
[19] = dose: 200.0 mg/kg/injection, schedule: Q04DX003 (ip), vehicle: Klucel (hydroxypropylcellulose) (HPC)
[20] = dose: 50.0 mg/kg/injection, schedule: Q01DX009 (ip), vehicle: Klucel (hydroxypropylcellulose) (HPC)
[21] = dose: 100.0 mg/kg/injection, schedule: Q01DX009 (ip), vehicle: Klucel (hydroxypropylcellulose) (HPC)
[22] = dose: 400.0 mg/kg/injection, schedule: Q01DX009 (ip), vehicle: Klucel (hydroxypropylcellulose) (HPC)
[23] = dose: 200.0 mg/kg/injection, schedule: Q01DX009 (ip), vehicle: Klucel (hydroxypropylcellulose) (HPC)

Measured: T/C

Cn1c(=O)c2c(ncn2CN2CCOCC2)n(C)c1=O
inactive: [1] 100 % of control | [2] 100 % of control

COC1c2ccccc2CC1(C)C (stereo not drawn)
inactive: [3] 118 % of control | [4] 105 % of control | [5] 94 % of control

CC(C)(C)c1ccc(S(=O)(=O)c2ccc(C(C)(C)C)c([N+](=O)[O-])c2)cc1[N+](=O)[O-]
inactive: [6] 101 % of control | [7] 92 % of control | [8] 105 % of control

CC(=O)OCCn1c([N+](=O)[O-])cnc1/C=[N+](/[O-])CCO
inactive: [3] 111 % of control | [4] 100 % of control | [5] 100 % of control

NCCCCC(N)C(=O)NC1C(CO)OC(n2cnc3c(N)ncnc32)C1O (stereo not drawn)
inactive: [9] 101 % of control | [10] 105 % of control | [11] 101 % of control

COP(=O)(OC)C(O)C(Cl)Cl (stereo not drawn)
inactive: [3] 115 % of control | [4] 104 % of control | [5] 104 % of control

Nc1ncnc2c1ncn2C1OC(CO)C(O)C(O)C1O (stereo not drawn)
inactive: [9] 103 % of control [middle of 4 runs] | [10] 100 % of control [middle of 4 runs] | [11] 100 % of control [middle of 4 runs]

CC(C)(C)OC(=O)C(c1ccccc1)c1ccccc1
inactive: dose: 50.0 mg/kg/injection, schedule: Q01DX001 (ip), vehicle: saline 106 % of control | [9] 89 % of control | [10] 106 % of control | [11] 89 % of control

CC(C)CC1C(C(C)C)C=NN1C (stereo not drawn)
inactive: [12] 100 % of control | [13] 86 % of control | [14] 100 % of control | [15] 94 % of control

O=C(COc1ccc(Cl)cc1C(=O)O)NCc1ccc(NC(=O)Nc2ccc(S(=O)(=O)F)cc2Cl)cc1
inactive: dose: 100.0 mg/kg/injection, schedule: Q01DX001 (ip), vehicle: Klucel (hydroxypropylcellulose) (HPC) 102 % of control | dose: 200.0 mg/kg/injection, schedule: Q01DX001 (ip), vehicle: Klucel (hydroxypropylcellulose) (HPC) 93 % of control | dose: 400.0 mg/kg/injection, schedule: Q01DX001 (ip), vehicle: Klucel (hydroxypropylcellulose) (HPC) 89 % of control

COC(=O)C1CCCN1C(=O)CNC(=O)OC(C)(C)C (stereo not drawn) (Boc-Gly-[ξP]-OMe)
inactive: [9] 103 % of control | [10] 97 % of control | [11] 94 % of control

CC1=NN(c2ccc(S(=O)(=O)O)cc2Cl)C(=O)C1
inactive: [16] 101 % of control | [17] 98 % of control | dose: 400.0 mg/kg/injection, schedule: Q04DX003 (ip), vehicle: saline with Tween-80 90 % of control

OC(c1cc(Nc2ccc(Cl)cc2)nc2ccccc12)C1CCCCN1 (stereo not drawn)
inactive: [18] 95 % of control | [19] 101 % of control

O=C(COc1ccc(Cl)cc1)NNc1ccccc1
inactive: [3] 100 % of control | [4] 96 % of control | [5] 114 % of control

COC(=O)CCCCCCCCCCS.[Pb]
inactive: [12] 92 % of control | [13] 94 % of control | [14] 94 % of control | [15] 97 % of control

COc1ccc(/C=C2\N=C(c3cc(OC)c(OC)c(OC)c3)OC2=O)cc1
inactive: [6] 95 % of control | [7] 98 % of control | [8] 88 % of control

O=c1ccc2c(Cl)cc(CN(CCO)CCO)cc2[nH]1
inactive: [1] 102 % of control | dose: 75.0 mg/kg/injection, schedule: Q04DX003 (ip), vehicle: saline 97 % of control | [2] 102 % of control | dose: 150.0 mg/kg/injection, schedule: Q04DX003 (ip), vehicle: saline 92 % of control | dose: 300.0 mg/kg/injection, schedule: Q01DX001 (ip), vehicle: saline 108 % of control

CCN(CC)Cc1ccccc1COC(=O)/C=C/c1ccccc1
inactive: [3] 108 % of control | [4] 86 % of control | [5] 108 % of control

[Ni+2].[O-]c1ccc(Cl)cc1C=NCc1ccccn1.[O-]c1ccc(Cl)cc1C=NCc1ccccn1
inactive: [16] 93 % of control | [17] 93 % of control

CC(=O)N(C)N=Nc1ccc(C)cc1
inactive: dose: 25.0 mg/kg/injection, schedule: Q01DX009 (ip), vehicle: Klucel (hydroxypropylcellulose) (HPC) 116 % of control | dose: 25.0 mg/kg/injection, schedule: Q04DX003 (ip), vehicle: other 101 % of control | [20] 110 % of control | dose: 50.0 mg/kg/injection, schedule: Q04DX003 (ip), vehicle: other 106 % of control | [21] 102 % of control and 108 % of control | dose: 100.0 mg/kg/injection, schedule: Q04DX003 (ip), vehicle: other 118 % of control | dose: 200.0 mg/kg/injection, schedule: Q04DX003 (ip), vehicle: other 123 % of control | [22] 105 % of control and 123 % of control

O=C1CCCN1Cl
inactive: dose: 100.0 mg/kg/injection, schedule: Q01DX001 (ip), vehicle: saline with Tween-80 96 % of control | dose: 200.0 mg/kg/injection, schedule: Q01DX001 (ip), vehicle: saline with Tween-80 96 % of control | dose: 400.0 mg/kg/injection, schedule: Q01DX001 (ip), vehicle: saline with Tween-80 96 % of control

O=C(Nc1cccc(Cl)c1)c1ccccc1
inactive: [21] 94 % of control | [18] 92 % of control | [23] 94 % of control | [19] 90 % of control | [22] 97 % of control | dose: 400.0 mg/kg/injection, schedule: Q04DX003 (ip), vehicle: Klucel (hydroxypropylcellulose) (HPC) 101 % of control

CCCCCCCCCCCC[n+]1ccc(C)cc1C
inactive: dose: 0.01 mg/kg/injection, schedule: Q01DX015 (ip), vehicle: saline 92 % of control | dose: 0.02 mg/kg/injection, schedule: Q01DX015 (ip), vehicle: saline 98 % of control | dose: 0.04 mg/kg/injection, schedule: Q01DX015 (ip), vehicle: saline 97 % of control | dose: 0.08 mg/kg/injection, schedule: Q01DX015 (ip), vehicle: saline 98 % of control | dose: 0.1 mg/kg/injection, schedule: Q01DX009 (ip), vehicle: saline 97 % of control | dose: 0.1 mg/kg/injection, schedule: Q04DX003 (ip), vehicle: saline 102 % of control | dose: 0.2 mg/kg/injection, schedule: Q01DX009 (ip), vehicle: saline 92 % of control | dose: 0.2 mg/kg/injection, schedule: Q04DX003 (ip), vehicle: saline 97 % of control | dose: 0.4 mg/kg/injection, schedule: Q01DX009 (ip), vehicle: saline 101 % of control | dose: 0.4 mg/kg/injection, schedule: Q04DX003 (ip), vehicle: saline 94 % of control | dose: 0.59 mg/kg/injection, schedule: Q01DX009 (ip), vehicle: saline 91 % of control

CCOC(=O)OCc1ccco1
inactive: [13] 94 % of control | dose: 100.0 mg/kg/injection, schedule: Q01DX009 (ip), vehicle: carboxymethylcellulose (CMC) 101 % of control and 103 % of control | dose: 100.0 mg/kg/injection, schedule: Q04DX002 (ip), vehicle: carboxymethylcellulose (CMC) 98 % of control and 100 % of control | dose: 100.0 mg/kg/injection, schedule: Q04DX003 (ip), vehicle: carboxymethylcellulose (CMC) 102 % of control | [14] 89 % of control | dose: 200.0 mg/kg/injection, schedule: Q01DX009 (ip), vehicle: carboxymethylcellulose (CMC) 97 % of control and 109 % of control | dose: 200.0 mg/kg/injection, schedule: Q04DX002 (ip), vehicle: carboxymethylcellulose (CMC) 98 % of control and 101 % of control | dose: 200.0 mg/kg/injection, schedule: Q04DX003 (ip), vehicle: carboxymethylcellulose (CMC) 96 % of control | [15] 110 % of control | dose: 400.0 mg/kg/injection, schedule: Q04DX002 (ip), vehicle: carboxymethylcellulose (CMC) 103 % of control and 106 % of control | dose: 400.0 mg/kg/injection, schedule: Q04DX003 (ip), vehicle: carboxymethylcellulose (CMC) 112 % of control

NC(CSS(=O)(=O)O)=NCCc1c[nH]c(=S)[nH]1
inactive: dose: 12.5 mg/kg/injection, schedule: Q04DX002 (ip), vehicle: Klucel (hydroxypropylcellulose) (HPC) 107 % of control | dose: 25.0 mg/kg/injection, schedule: Q04DX002 (ip), vehicle: Klucel (hydroxypropylcellulose) (HPC) 91 % of control

CC1([N+](=O)[O-])COC2(CCCCC2)OC1
inactive: [20] 100 % of control | [21] 96 % of control | [23] 91 % of control
